This note sets out measurements from the NIST ThermoML archive (doi:10.1016/j.fluid.2010.10.008).

Molecules are shown by their SMILES. Numbers after ± are expanded uncertainties.

The nature of this series: activity coefficient (dimensionless); of the first substance listed, at infinite dilution; xn = mol fraction of the nth substance listed. To be noted: Liquid, Chromatography, x1 = 0.

`COCCOC` [1,2-dimethoxyethane] + CCn1cc[n+](C)c1.CS(=O)(=O)[O-]: the activity coefficient by setting is: (318.15 K) 5.58 ± 0.38; (323.15 K) 5.62 ± 0.38; (333.15 K) 5.69 ± 0.39; (343.15 K) 5.75 ± 0.39; (353.15 K) 5.8 ± 0.4.
Take `Cc1cccc(C)c1` [1,3-dimethylbenzene] + CCn1cc[n+](C)c1.CS(=O)(=O)[O-]: the activity coefficient (318.15 K) was 20.8 ± 2.2; the activity coefficient (323.15 K) was 20.5 ± 2.2; the activity coefficient (333.15 K) is 19.9 ± 2.1; the activity coefficient (343.15 K) turned out to be 19.3 ± 2; the activity coefficient (353.15 K) is 18.8 ± 2.
As to `FC(F)(F)C(Cl)Br` (stereo not given) [1-bromo-1-chloro-2,2,2-trifluoroethane] + CCn1cc[n+](C)c1.CS(=O)(=O)[O-], the activity coefficient (318.15 K) was found to be 0.586 ± 0.042; the activity coefficient (323.15 K) is 0.632 ± 0.044; the activity coefficient (333.15 K) stood at 0.739 ± 0.049; the activity coefficient (343.15 K) amounted to 0.843 ± 0.054; the activity coefficient (353.15 K) worked out at 0.96 ± 0.06.
`COC(C)(C)C` [2-methoxy-2-methylpropane] + CCn1cc[n+](C)c1.CS(=O)(=O)[O-]: the activity coefficient is, setting by setting: (318.15 K) 34.6 ± 2.4; (323.15 K) 33.8 ± 2.3; (333.15 K) 32.6 ± 2.2; (343.15 K) 31.8 ± 2.2; (353.15 K) 30.9 ± 2.1.
On the same counts, the results for `CC(C)=O` [acetone] + CCn1cc[n+](C)c1.CS(=O)(=O)[O-] are 2.46 ± 0.17, 2.47 ± 0.17, 2.47 ± 0.17, 2.48 ± 0.17 and 2.49 ± 0.17.
Regarding `CC#N` [acetonitrile] + CCn1cc[n+](C)c1.CS(=O)(=O)[O-], the activity coefficient (318.15 K) came out at 0.862 ± 0.055; the activity coefficient (323.15 K) turned out to be 0.873 ± 0.056; the activity coefficient (333.15 K) worked out at 0.887 ± 0.056; the activity coefficient (343.15 K) was 0.9 ± 0.057; the activity coefficient (353.15 K) amounted to 0.912 ± 0.058.
Take `c1ccccc1` [benzene] + CCn1cc[n+](C)c1.CS(=O)(=O)[O-]: the activity coefficient is, setting by setting: (318.15 K) 4.51 ± 0.47; (323.15 K) 4.5 ± 0.47; (333.15 K) 4.48 ± 0.47; (343.15 K) 4.48 ± 0.47; (353.15 K) 4.46 ± 0.47.
Regarding `CCC(C)=O` [butanone] + CCn1cc[n+](C)c1.CS(=O)(=O)[O-], the activity coefficient by setting is: (318.15 K) 4.48 ± 0.31; (323.15 K) 4.46 ± 0.3; (333.15 K) 4.48 ± 0.31; (343.15 K) 4.41 ± 0.3; (353.15 K) 4.38 ± 0.3.
For `C1CCCCC1` [cyclohexane] + CCn1cc[n+](C)c1.CS(=O)(=O)[O-], the activity coefficient amounted to 123 ± 13 (318.15 K); 115 ± 12 (323.15 K); 103 ± 11 (333.15 K); 93.2 ± 9.8 (343.15 K); 84.3 ± 8.9 (353.15 K).
As to `ClCCl` [dichloromethane] + CCn1cc[n+](C)c1.CS(=O)(=O)[O-], the activity coefficient reads like this: (318.15 K) 0.7 ± 0.047; (323.15 K) 0.727 ± 0.048; (333.15 K) 0.78 ± 0.051; (343.15 K) 0.833 ± 0.054; (353.15 K) 0.887 ± 0.056.
On the same counts, the results for `CC(C)OC(C)C` [diisopropyl ether] + CCn1cc[n+](C)c1.CS(=O)(=O)[O-] are 127 ± 26, 122 ± 25, 114 ± 23, 107 ± 22 and 101 ± 20.
Take `COC(=O)OC` [dimethyl carbonate] + CCn1cc[n+](C)c1.CS(=O)(=O)[O-]: the activity coefficient came out at 3.18 ± 0.22 (318.15 K); 3.17 ± 0.22 (323.15 K); 3.16 ± 0.22 (333.15 K); 3.15 ± 0.21 (343.15 K); 3.14 ± 0.21 (353.15 K).
As for `CCO` [ethanol] + CCn1cc[n+](C)c1.CS(=O)(=O)[O-], the activity coefficient reads like this: (318.15 K) 0.513 ± 0.038; (323.15 K) 0.509 ± 0.038; (333.15 K) 0.501 ± 0.038; (343.15 K) 0.496 ± 0.038; (353.15 K) 0.493 ± 0.038.
With `CCOC(C)=O` [ethyl acetate] + CCn1cc[n+](C)c1.CS(=O)(=O)[O-], the activity coefficient runs as follows: (318.15 K) 7.32 ± 0.5; (323.15 K) 7.29 ± 0.5; (333.15 K) 7.22 ± 0.49; (343.15 K) 7.17 ± 0.49; (353.15 K) 7.12 ± 0.49.
For the compound `CCc1ccccc1` [ethylbenzene] + CCn1cc[n+](C)c1.CS(=O)(=O)[O-], the activity coefficient runs as follows: (318.15 K) 19.1 ± 2; (323.15 K) 18.8 ± 2; (333.15 K) 18.3 ± 1.9; (343.15 K) 17.8 ± 1.9; (353.15 K) 17.3 ± 1.8.
On the same counts, the results for `CCC1CCCCC1` [ethylcyclohexane] + CCn1cc[n+](C)c1.CS(=O)(=O)[O-] are 344 ± 36, 326 ± 34, 291 ± 31, 262 ± 28 and 237 ± 25.
For `CCCCCCC` [heptane] + CCn1cc[n+](C)c1.CS(=O)(=O)[O-], the activity coefficient reads like this: (318.15 K) 637 ± 130; (323.15 K) 596 ± 120; (333.15 K) 523 ± 110; (343.15 K) 471 ± 96; (353.15 K) 422 ± 86.
As for `CO` [methanol] + CCn1cc[n+](C)c1.CS(=O)(=O)[O-], the activity coefficient was 0.238 ± 0.029 (318.15 K); 0.239 ± 0.029 (323.15 K); 0.242 ± 0.03 (333.15 K); 0.244 ± 0.03 (343.15 K); 0.247 ± 0.03 (353.15 K).
On the same counts, the results for `COC(C)=O` [methyl ethanoate] + CCn1cc[n+](C)c1.CS(=O)(=O)[O-] are 3.59 ± 0.24, 3.6 ± 0.25, 3.61 ± 0.25, 3.63 ± 0.25 and 3.66 ± 0.25.
For the compound `CC1CCCCC1` [methylcyclohexane] + CCn1cc[n+](C)c1.CS(=O)(=O)[O-], the activity coefficient reads like this: (318.15 K) 211 ± 22; (323.15 K) 198 ± 21; (333.15 K) 177 ± 19; (343.15 K) 160 ± 17; (353.15 K) 147 ± 16.
Take `C[N+](=O)[O-]` [nitromethane] + CCn1cc[n+](C)c1.CS(=O)(=O)[O-]: the activity coefficient is, setting by setting: (318.15 K) 0.612 ± 0.043; (323.15 K) 0.621 ± 0.043; (333.15 K) 0.638 ± 0.044; (343.15 K) 0.653 ± 0.045; (353.15 K) 0.668 ± 0.045.
On to `C=CCCCCCC` [oct-1-ene] + CCn1cc[n+](C)c1.CS(=O)(=O)[O-], for which the activity coefficient by setting is: (318.15 K) 374 ± 26; (323.15 K) 356 ± 24; (333.15 K) 325 ± 22; (343.15 K) 300 ± 21; (353.15 K) 277 ± 19.
Taken in the same sequence, the figures for `CCCCCCCC` [octane] + CCn1cc[n+](C)c1.CS(=O)(=O)[O-] were 1020 ± 110, 949 ± 100, 839 ± 89, 752 ± 79 and 676 ± 71.
On the same counts, the results for `CCCO` [propan-1-ol] + CCn1cc[n+](C)c1.CS(=O)(=O)[O-] are 0.801 ± 0.052, 0.789 ± 0.051, 0.771 ± 0.05, 0.754 ± 0.05 and 0.742 ± 0.049.
Taken in the same sequence, the figures for `CC(C)O` [propan-2-ol] + CCn1cc[n+](C)c1.CS(=O)(=O)[O-] were 0.974 ± 0.061, 0.958 ± 0.06, 0.933 ± 0.059, 0.913 ± 0.058 and 0.9 ± 0.057.
Take `ClC(Cl)(Cl)Cl` [tetrachloromethane] + CCn1cc[n+](C)c1.CS(=O)(=O)[O-]: the activity coefficient reads like this: (318.15 K) 4.93 ± 0.34; (323.15 K) 5.08 ± 0.35; (333.15 K) 5.36 ± 0.37; (343.15 K) 5.62 ± 0.38; (353.15 K) 5.87 ± 0.4.
For `C1CCOC1` [tetrahydrofuran] + CCn1cc[n+](C)c1.CS(=O)(=O)[O-], the activity coefficient stood at 5.37 ± 0.37 (318.15 K); 5.33 ± 0.36 (323.15 K); 5.24 ± 0.36 (333.15 K); 5.18 ± 0.35 (343.15 K); 5.1 ± 0.35 (353.15 K).
As for `c1ccsc1` [thiophene] + CCn1cc[n+](C)c1.CS(=O)(=O)[O-], the activity coefficient runs as follows: (318.15 K) 2.04 ± 0.14; (323.15 K) 2.06 ± 0.14; (333.15 K) 2.11 ± 0.14; (343.15 K) 2.16 ± 0.15; (353.15 K) 2.2 ± 0.15.
Consider `Cc1ccccc1` [toluene] + CCn1cc[n+](C)c1.CS(=O)(=O)[O-], for which the activity coefficient (318.15 K) came to 9.41 ± 0.99; the activity coefficient (323.15 K) turned out to be 9.37 ± 0.99; the activity coefficient (333.15 K) worked out at 9.23 ± 0.97; the activity coefficient (343.15 K) stood at 9.12 ± 0.96; the activity coefficient (353.15 K) turned out to be 9 ± 0.95.
In the case of `ClC(Cl)Cl` [trichloromethane] + CCn1cc[n+](C)c1.CS(=O)(=O)[O-], the activity coefficient (318.15 K) was 0.488 ± 0.037; the activity coefficient (323.15 K) is 0.515 ± 0.038; the activity coefficient (333.15 K) was determined as 0.572 ± 0.041; the activity coefficient (343.15 K) turned out to be 0.633 ± 0.044; the activity coefficient (353.15 K) turned out to be 0.694 ± 0.047.
